From patent US10123537B2, “Amide compound or salt thereof, agricultural and horticultural insecticide and microbicide comprising the compound, and method for using the insecticide and microbicide” (NIHON NOHYAKU CO., LTD., priority 2013, dated 2018)

Legend:
Meloidogyne incognita = test: Nematicidal test on Meloidogyne incognita; format: in vivo; settings: 500 ppm, 1 mL soil drench, potted melon seedlings, 8 days after inoculation
Description: Nematicidal Test on Meloidogyne incognita
Agrochemical formulations containing different amide compounds represented by the general formula (I) of the present invention or salts thereof as an active ingredient were separately diluted to a concentration of 500 ppm. The diluted agrochemical formulations (1 mL) were drenched into the soil around the foot of potted melon seedlings. At one day after the agrochemical treatment, an aqueous suspension of Meloidogyne incognita (about 500 worms/mL) was drenched into the soil for inoculation both in a treatment plot and in a non-treatment plot. The inoculated pots were kept in a greenhouse at 25° C. At 8 days after the inoculation, the root of each seedling was washed with water, the number of root nodules was counted, and the nematicidal effect was evaluated according to the following criteria.
A: the percentage of the number of root nodules relative to the non-treatment plot is 0%.
B: the percentage of the number of root nodules relative to the non-treatment plot is 1 to 10%.
C: the percentage of the number of root nodules relative to the non-treatment plot is 11 to 20%.
D: the percentage of the number of root nodules relative to the non-treatment plot is 21 to 50%.

Tetranychus urticae = test: Acaricidal test on Tetranychus urticae; format: in vivo; settings: 500 ppm, kidney bean leaf disks dipped about 30 seconds, female adults, two days later, 25° C.
From the text: Acaricidal Test on Tetranychus urticae

[1] = tested on: wheat powdery mildew fungus Erysiphe graminis; settings: 200 ppm, foliar application to wheat plants, 10 mL per pot, 7 days after inoculation

SMILES	nematicidal effect (number of root nodules relative to non-treatment plot) activity level (Meloidogyne incognita)	acaricidal effect (corrected mortality rate) activity level (Tetranychus urticae)	control effect (control rate, lesion area) activity level [1]
CCS(=O)(=O)c1cc(C(F)(F)F)ccc1C(=O)N(C)c1ccc(C(F)(F)C(F)(F)F)cn1 [Compound 1-26]	D or higher	D or higher	
CCS(=O)(=O)c1cc(C(F)(F)C(F)(F)F)ccc1C(=O)N(C)c1ccc(C(F)(F)F)cn1 [Compound 1-44]	D or higher		
CCS(=O)(=O)c1cc(C(F)(F)F)cnc1C(=O)N(c1ccc(C(F)(F)F)cn1)C1CC1 [Compound 1-15]			D or higher
CC[S+]([O-])c1cc(C(F)(F)F)ccc1C(=O)N(C)c1ccc(C(C)C)cc1 (centres unmarked) [Compound 3-19]			D or higher
CCS(=O)(=O)c1cc(C(F)(F)F)ccc1C(=O)N(c1ccc(C(F)(F)F)cn1)C1CC1 [Compound 1-9]	D or higher	D or higher	
CCSc1cc(C(F)(F)F)ccc1C(=O)N(C)c1ccc(C(F)(F)C(F)(F)F)cn1 [Compound 1-25]	D or higher	D or higher	
CCSc1cc(C(F)(F)F)ccc1C(=O)N(C)c1ccc(Cl)cc1 [Compound 3-21]	D or higher	D or higher	
CCS(=O)(=O)c1cc(C(F)(F)F)ccc1C(=O)N(C)c1ccc(C(C(F)(F)F)C(F)(F)F)cc1 [Compound 3-11]	D or higher	D or higher	
CCS(=O)(=O)c1cc(C(F)(F)F)ccc1C(=O)Nc1ccc(C(F)(F)C(F)(F)C(F)(F)C(F)(F)F)cc1C [Compound 4-16]			D or higher
CC[S+]([O-])c1cc(C(F)(F)F)ccc1C(=O)Nc1ccc([Si](C)(C)C)cc1C (centres unmarked) [Compound 5-64]			D or higher
CCS(=O)(=O)c1cc(C(F)(F)F)ccc1C(=O)Nc1ccc(F)c(C(F)(F)F)c1F [Compound 4-22]			D or higher
CC[S+]([O-])c1cc(C(F)(F)F)ccc1C(=O)N(C)c1ccc(SC(F)(F)F)cc1 (centres unmarked) [Compound 3-16]			D or higher
CC[S+]([O-])c1cc(C(F)(F)F)ccc1C(=O)N(C)c1ccc(Cl)cc1 (centres unmarked) [Compound 3-22]	D or higher		
CCSc1cc(C(F)(F)F)cnc1C(=O)N(CC)c1ccc(C(F)(F)F)cn1 [Compound 1-10]	D or higher		D or higher
CCS(=O)(=O)c1cc(C(F)(F)F)ccc1C(=O)N(C)c1ccc(Cl)c(C(F)(F)F)c1 [Compound 3-32]			D or higher
CCS(=O)(=O)c1cc(C(F)(F)F)ccc1C(=O)Nc1ccc(OC(F)(F)C(F)F)cc1C [Compound 5-71]			D or higher
CC[S+]([O-])c1cc(C(F)(F)F)ccc1C(=O)Nc1ccc(OC(F)(F)C(F)F)cc1C (centres unmarked) [Compound 5-70]			D or higher
CCS(=O)(=O)c1cc(C(F)(F)F)ccc1C(=O)N(C)c1ccc(C(F)(F)C(F)(F)F)c(C)c1C [Compound 3-50]			D or higher
CC[S+]([O-])c1cc(C(F)(F)F)ccc1C(=O)N(C)c1ccc(C(F)(C(F)(F)F)C(F)(F)F)cc1 (centres unmarked) [Compound 3-8]	D or higher		
CC[S+]([O-])c1cc(C(F)(F)F)cnc1C(=O)N(c1ccc(C(F)(F)F)cn1)C1CC1 (centres unmarked) [Compound 1-14]			D or higher
CCSc1cc(C(F)(F)F)ccc1C(=O)N(C)c1ccc(C(F)(C(F)(F)F)C(F)(F)F)nc1 [Compound 1-22]			D or higher
CCSc1cc(C(F)(F)F)cnc1C(=O)N(c1ccc(C(F)(F)F)cn1)C1CC1 [Compound 1-13]	D or higher		
CC[S+]([O-])c1cc(C(F)(F)F)ccc1C(=O)N(C)c1ccc(OC(F)(F)F)cc1 (centres unmarked) [Compound 3-13]			D or higher
CC[S+]([O-])c1cc(C(F)(F)F)ccc1C(=O)N(C)c1ccc(Cl)c(C(F)(F)F)c1 (centres unmarked) [Compound 3-31]			D or higher
CCS(=O)(=O)c1cc(C(F)(F)F)ccc1C(=O)N(C)c1ccc(C(F)(F)F)nn1 [Compound 2-3]	D or higher		

SMILES	nematicidal effect (number of root nodules relative to non-treatment plot) activity level (Meloidogyne incognita)	acaricidal effect (corrected mortality rate) activity level (Tetranychus urticae)	control effect (control rate, lesion area) activity level [1]
CCSc1cc(C(F)(F)F)ccc1C(=O)N(C)c1ccc(C(F)(C(F)(F)F)C(F)(F)F)cc1 [Compound 3-7]	D or higher		
CCSc1cc(C(F)(F)F)ccc1C(=O)N(c1ccc(C(F)(F)F)cn1)C1CC1 [Compound 1-7]	D or higher		
CCS(=O)(=O)c1cc(C(F)(F)F)ccc1C(=O)N(C)c1ccc(C(F)(C(F)(F)F)C(F)(F)F)cn1 [Compound 1-21]	D or higher		D or higher
CCSc1cc(C(F)(F)F)ccc1C(=O)N(C)c1ccc(C(OC)(C(F)(F)F)C(F)(F)F)cc1 [Compound 3-4]		D or higher	
CCSc1cc(C(F)(F)F)ccc1C(=O)N(C)c1ccc(C(F)(F)F)nn1 [Compound 2-1]	D or higher		
CCS(=O)(=O)c1cc(C(F)(F)F)ccc1C(=O)Nc1ccc(C(F)(C(F)(F)F)C(F)(F)Br)cc1Cl (centres unmarked) [Compound 5-59]			D or higher
CCSc1cc(SC(F)(F)F)ccc1C(=O)Nc1ccc(C(F)(C(F)(F)F)C(F)(F)F)cc1Cl [Compound 6-22]			D or higher
CCS(=O)(=O)c1cc(SC(F)(F)F)ccc1C(=O)Nc1ccc(C(F)(C(F)(F)F)C(F)(F)F)cc1Cl [Compound 6-24]			D or higher
CC[S+]([O-])c1cc(C(F)(F)F)ccc1C(=O)N(C)c1ccc(I)cc1F (centres unmarked) [Compound 3-34]			D or higher
CCS(=O)(=O)c1cc(C(F)(F)F)ccc1C(=O)N(C)c1ccc(C(F)(F)C(F)(F)F)c(C)c1 [Compound 3-47]			D or higher
CC[S+]([O-])c1cc(C(F)(F)F)ccc1C(=O)Nc1ccc(C(F)(C(F)(F)F)C(F)(F)F)cc1Cl (centres unmarked) [Compound 4-27]			D or higher
CC[S+]([O-])c1cc(SC(F)(F)F)ccc1C(=O)Nc1ccc(C(F)(C(F)(F)F)C(F)(F)F)cc1Cl (centres unmarked) [Compound 6-23]			D or higher
CC[S+]([O-])c1cc(C(F)(F)F)ccc1C(=O)Nc1ccc(OC(F)(F)F)cc1Br (centres unmarked) [Compound 5-73]			D or higher
CC[S+]([O-])c1cc(C(F)(F)F)ccc1C(=O)Nc1ccc(F)c(C(F)(F)F)c1F (centres unmarked) [Compound 4-21]			D or higher
CCS(=O)(=O)c1cc(C(F)(F)F)ccc1C(=O)N(C)c1ccc(SC(F)(F)F)cc1 [Compound 3-17]			D or higher
CCSc1cc(C(F)(F)F)ccc1C(=O)Nc1ccc(C(C(F)(F)F)C(F)(F)F)cc1 [Compound 4-5]	D or higher		D or higher
CCS(=O)(=O)c1cc(C(F)(F)F)ccc1C(=O)N(C)c1ccc(C(F)(C(F)(F)F)C(F)(F)F)cc1 [Compound 3-9]	D or higher		D or higher
CCc1cc(OC(F)(F)F)ccc1NC(=O)c1ccc(C(F)(F)F)cc1S(=O)(=O)CC [Compound 5-77]			D or higher
CCN(C(=O)c1ncc(C(F)(F)F)cc1S(=O)(=O)CC)c1ccc(C(F)(F)F)cn1 [Compound 1-12]	D or higher		
CCS(=O)(=O)c1cc(OC)ccc1C(=O)Nc1ccc(C(F)(C(F)(F)F)C(F)(F)F)cc1C [Compound 6-12]			D or higher
CC[S+]([O-])c1cc(C(F)(F)F)ccc1C(=O)N(C)c1ccc(Cl)c(Cl)c1 (centres unmarked) [Compound 3-28]			D or higher
CCSc1cc(C(F)(F)F)ccc1C(=O)Nc1ccc(C(F)(C(F)F)C(F)(F)F)cc1Cl (centres unmarked) [Compound 5-51]			D or higher
CCSc1cc(C(F)(F)F)ccc1C(=O)N(C)c1ccc(OC(F)(F)F)cc1 [Compound 3-12]	D or higher		D or higher
CCS(=O)(=O)c1cc(C(F)(F)F)ccc1C(=O)N(C)c1ccc(C(F)(C(F)(F)F)C(F)(F)F)nc1 [Compound 1-24]	D or higher		
